{"source": "patent US11478011B2", "about": "“Nutritional compositions and infant formula for promoting de novo myealination” (NESTEC S.A., priority 2015, dated 2022)"}
{"tested_on": "brain myelination (myelin water fraction) of children up to 5 years of age", "experiment": "Correlation analysis between infant formula nutrient composition and brain myelination (mcDESPOT MRI myelin water fraction)", "type": "in vivo, human", "settings": "formula-fed children up to 5 years; brain regions listed in the block; FIG. 1b-1p", "description": "MRI (Magnetic Resonance Imaging): MRI brain scans of infants and children between 0 and 5 years were acquired using a white matter imaging technique. This technique provides a quantitative measure, the Myelin Water Fraction (MWF), which is a surrogate marker of myelin content in the brain. When mapped as a function of time across early childhood, myelination trajectories can be generated.\nInfant formula composition: six infant formulas fed to infants participating in a study were analyzed for their composition/level of myelin-relevant nutrients.\nInfants included in this study were drawn from a larger longitudinal study of normal brain and behavioral development: the Brown University Assessment of Myelination and Behavior Across Maturation (BAMBAM). To focus on neurotypical development, children with known potential risk factors for learning, neurologic, or psychiatric disorders were specifically excluded during recruitment and enrollment. Thus, children with in utero alcohol or illicit substance exposure, premature (<37 weeks gestation) or multiple birth, fetal ultrasound abnormalities, complicated pregnancy (e.g., preeclampsia), APGAR scores <8, NICU admission, neurological disorder (e.g., head injury, epilepsy), psychiatric or developmental disorders in the infant, parents or siblings (including maternal depression requiring medication) were excluded. Ongoing screenings, such as the MCAT for autism, or CBCL for behavioral problems, were further used to remove enrolled children with clinically concerning behaviors or overt medical conditions (such as autism spectrum disorders).\nA combination of retrospective and prospective data were acquired from parents via detailed medical histories and parental interview on the type of infant formula used, percentage of breastfeeding to formula feeding, and length of exclusive breastfeeding. This information was updated at each study visit, which occurred approximately every 6 months for children under 2 years, and yearly for older children. Using this information, children were categorized into one of 2 groups: #1. Exclusively formula-fed; and #2. Exclusively breastfed for at least 90 days (3 months). Children who were fed a combination of breastmilk and formula within 3 months were excluded from our analysis. Infants within the exclusively formula-fed group were further sub-divided based on parental reports of the main infant formula used throughout the first 3 months. Main formula was defined as that given 90% of the time or more (in the case were parents used an alternate brand during vacation, for example).\nUsing these criteria, 94 exclusively formula-fed infants and young children were selected into group #1. These included 13 children who received formula #2; 28 who received formula #5; 8 who received formula #3; 39 who received formula #4; 5 who received formula #1 and 1 who received formula #6. A sample of 52 exclusively breast-fed infants were also selected and matched to the over formula-fed group with regards to mean age, gestation duration, birth weight, male:female ratio, ethnicity ratio, maternal education, family size, and number of languages spoken in the home (in addition to English).\nEach infant was scanned using the mcDESPOT (multicomponent Driven Equilibrium Single Pulse Observation of T1 and T2) white matter imaging technique Deoni et al. (Magn. Reson. Med. 2008, 60:1372-1387), which provides a quantitative measure of the myelin water fraction (MWF)—a measure of myelin content—at each point throughout the brain. All infants were scanned during natural (i.e. non-sedated) sleep using acoustically-muffled mcDESPOT imaging protocols. Total imaging times ranged from 19 minutes for the youngest toddlers to 24 minutes for the older 4 year-old children."}
{"molecule": "phosphatidylcholine", "association of nutrient with myelination (myelin water fraction) over time in the brain": "association with myelination (myelin water fraction) was observed over time in the brain"}
{"molecule": "phosphatidylinositol", "association of nutrient with myelination (myelin water fraction) over time in the brain": "association with myelination (myelin water fraction) was observed over time in the brain"}
{"molecule": "[Mg+2]", "note": "[magnesium]", "association of nutrient with myelination (myelin water fraction) over time in the brain": "association with myelination (myelin water fraction) was observed over time in the brain"}
{"molecule": "iron", "association of nutrient with myelination (myelin water fraction) over time in the brain": "association with myelination (myelin water fraction) was observed over time in the brain"}
{"molecule": "[Ca+2]", "note": "[calcium]", "association of nutrient with myelination (myelin water fraction) over time in the brain": "association with myelination (myelin water fraction) was observed over time in the brain"}
{"molecule": "Sphingomyelin", "association of nutrient with myelination (myelin water fraction) over time in the brain": "association with myelination (myelin water fraction) was observed over time in the brain"}
{"molecule": "[P]", "note": "[phosphorus]", "association of nutrient with myelination (myelin water fraction) over time in the brain": "association with myelination (myelin water fraction) was observed over time in the brain"}
{"molecule": "[Zn]", "note": "[zinc]", "association of nutrient with myelination (myelin water fraction) over time in the brain": "association with myelination (myelin water fraction) was observed over time in the brain"}
{"molecule": "vitamin B12", "association of nutrient with myelination (myelin water fraction) over time in the brain": "association with myelination (myelin water fraction) was observed over time in the brain"}
{"molecule": "CCCCC/C=C\\C/C=C\\C/C=C\\C/C=C\\CCCC(=O)O", "note": "[AA, arachidonic acid]", "association of nutrient with myelination (myelin water fraction) over time in the brain": "association with myelination (myelin water fraction) was observed over time in the brain"}
{"tested_on": "Neural Progenitor Cell (NPCs) from E14 mouse neocortex", "experiment": "Neurosphere counts in 96-well plates", "type": "cell-based", "settings": "Low dose (Dose 1: 10 nM); grown for 2 days; control 103", "description": "(§1) Media Compositions and Culture Methods 1) Neurobasal Complete Media Neurobasal media (LIFE TECHNOLOGIES CORP, #21103-049) 50× B27 supplement (LIFE TECHNOLOGIES CORP, #12587-010) 2 mM L-Glutamine (LIFE TECHNOLOGIES CORP, #25030-149) 1× Pen-Strep (LIFE TECHNOLOGIES CORP, #15140-122) 2) Neurobasal Media Complete with Growth Factors (GF) Above recipe with GF mix 1M Tris (MW 121.14, Fisher SCI BP152) Heparin (sigma H3149) BSA (Sigma A7030) DNAse, RNase, Protease free water (Fisher SCI AC327390010) EGF (GIBCO PHG0311) bFGF vial (GIBCO PHG0021) 3) Neurobasal Media No Choline (Life Technologies, Formulated Custom, No L-Glutamine, no phenol red) Note: complete and complete with GF made the same as above. Generation of Neural Progenitor Cell (NPCs) Libraries: dissociation of E14 mouse neocortex Reagents Needed: DPBS (1×)+10% Pen/Strep Neurobasal media/10% Pen/Strep/10× Hepes Procedure:\nE14 pup brains were harvested and placed in ice cold DPBS (1×)+10% Pen/Strep, then they were dissected using a dissecting microscope. From each pup, one brain hemisphere was placed in 2 ml of Neurobasal media/10% P/S/10× Hepes and another brain hemisphere was placed in another tube.\nThe tissue from each tube was aseptically and manually dissociate into single cells, neurobasal complete medium was added and centrifuged at 130 G for 5 min. […]"}
{"molecule": "Sphingomyelin", "number of neurospheres, Average (Mean)": 94}
{"tested_on": "Neural Progenitor Cell (NPCs) from E14 mouse neocortex", "experiment": "Monolayer culture NPC proliferation assay", "type": "cell-based", "settings": "low dose (Dose 1: 10 nM); 3 days; control 262", "description": "as §1\nE14 pup brains were harvested and placed in ice cold DPBS (1×)+10% Pen/Strep, then they were dissected using a dissecting microscope. From each pup, one brain hemisphere was placed in 2 ml of Neurobasal media/10% P/S/10× Hepes and another brain hemisphere was placed in another tube. […]\nEDU incorporation was measured using Click-iT® EdU Alexa Fluor® 555 Imaging Kit (Life technologies, #c10338). […]"}
{"molecule": "Sphingomyelin", "neuronal proliferation, DAPI": 280}
